Test results as given in patent US7709458B2, “Method for inhibiting cancer cell proliferation or increasing cancer cell apoptosis” (priority 2004, dated 2010).
“Also recorded” adds a separate entry of the source. Like-named read-outs stand apart in the source and are kept apart here.

Legend:
[1] = test system: p44/42 (ERK1/2) mitogen-activated protein kinase (MAPK) cascade; assay: Acetylcholine- and EGF-induced activation of p44/42 MAPK signaling in H508 cells; format: cell-based, human
[2] = test system: NRK 52E cells (normal rat kidney cells); assay: Cell proliferation assay on normal rat kidney cells (Alamar blue, 24-96 h); format: cell-based
Experimental: (§1) Cell proliferation assay on normal rat kidney cells. To assess potential effects on cell proliferation, the Alamar blue assay was performed using NRK 52E cells. Cells were harvested as described for the toxicity assay and seeded in 96-well tissue culture plates at a density of about 3×10^3 cells/well and evaluated over a 96-h time frame. Cells were allowed to attach for 3 h in the basal, serum-containing DMEM medium. After attachment, the media was aspirated and replaced with test solutions according to the design described for the toxicity assay with the addition of the Alamar blue dye to each solution (as 10% vol/vol). The reduction of Alamar blue dye was measured in a fluorimetric plate reader (Cytofluor) at 24, 48, 72 and 96 h. Morphological observation was also performed to ensure that the cell patterns matched the fluorescence data. Data were collected as raw fluorescence units and expressed as a percentage of the solvent control using the average values from all 8 wells used for each group (mean fluorescence test/mean fluorescence control×100=% control fluorescence) at each time period. As a further check to ensure that Alamar blue was not itself exerting some growth or inhibitory effects the experiments were also performed by plating cells at the lower density with exposures for 72 h without Alamar blue in the media. After the 72-h growth period, the media was aspirated and fresh DMEM containing Alamar blue (10% vol/vol) was added to all wells. Cells were further incubated in the Alamar blue solution for 6 h and fluorescence measured and data collected and expressed as described.

[3] = test system: NRK 52E cells (normal rat kidney cells); assay: Cytotoxicity on normal rat kidney cells using the Alamar blue assay; format: cell-based; conditions: for decrease in fluorescence: 200 μM
Experimental: Toxicity assays in normal rat kidney cells (NRK). The toxicity of c-di-GMP in independent cell lines was tested. In these studies, acute (24 and 72 h) toxicity in NRK 52 E cells (normal rat kidney cells) was determined using the Alamar blue assay. NRK 52E cells are a rat renal tubule epithelial cell line originally cloned from a mixed culture termed NRK. The Alamar blue assay is designed to measure the proliferation of cell lines and is used routinely to determine the cytotoxicity of various chemicals. […] It is minimally toxic to most living cells.
Chemical toxicity on normal rat kidney cells. To assess chemical toxicity, the Alamar blue assay was performed using NRK 52E cells plated at near confluence in 96-well tissue culture plates (Costar). Cells were maintained in DMEM containing 10% FBS and penicillin/streptomycin in tissue culture flasks. Cells were harvested by trypsinization, resuspended in the basal medium and counted. NRK 52E cells were plated at a density of 4-5×10^4 cells/well. After a 24-h attachment/acclimation interval, the tissue culture media was aspirated and replaced with the appropriate test solution. For most experiments, 8 wells were used for each solution, i.e., each solution was tested in one column of 8 replicate wells. […] Plates were incubated for 24 or 72 h and observed under phase contrast microscopy. All solutions were aspirated and replaced with fresh DMEM containing Alamar blue dye (10% vol/vol). Plates were incubated at 37° C. for an additional 6 h after which fluorescence was measured using a fluorimetric plate reader (Cytofluor). Data were collected as raw fluorescence units and expressed as a percentage of the solvent control using average values from all 8 wells for each group (mean fluorescence test/mean fluorescence control×100=% control fluorescence).
as §1

[4] = Solubility and stability of c-di-GMP; format: physicochemical
[5] = test system: H508 human colon cancer cells; assay: H508 colon cancer cell proliferation assay (sulforhodamine B colorimetric assay); format: cell-based; conditions: for effect on EGF-induced H508 cell proliferation: EGF 1 ng/ml; for effect on acetylcholine-induced H508 cell proliferation: acetylcholine 300 μM
Experimental: H508 colon cancer cell culture. H508 human colon cancer cells were grown in RPMI 1640 (ATCC) supplemented with 10% fetal bovine serum (FBS) (Biowhittaker). Adherent cultures were passaged weekly at subconfluence after trypsinization. Cultures were maintained in incubators at 37° C. in an atmosphere of 5% CO2 and 95% air.
H508 colon cancer cell proliferation assay. Cell proliferation was determined using the sulforhodamine B (SRB) colorimetric assay (Skehan et al., 1990). Cells were seeded in 96-well plates (Corning Glass Works, Corning, N.Y.) at approx. 10% confluence and allowed to attach for 24 h. Growth medium was removed and fresh medium without FBS and containing the indicated concentration of test agent was added. Cells were incubated for the indicated periods of time at 37° C. in an atmosphere of 5% CO2 and 95% air. After incubation, cells were treated for 30 min with 0.4% (w/v) SRB dissolved in 1% acetic acid. Protein-bound dye was extracted with unbuffered 10 mM Tris base. Absorbance was measured at 560 nm using a computer-interfaced, 96-well microtiter plate reader.
c-di-GMP inhibits proliferation of human colon cancer cells. The potential therapeutic actions of c-di-GMP were examined on basal and growth factor-stimulated proliferation of cells derived from a moderately differentiated human cecal adenocarcinoma (H508 cells) that express M3 muscarinic (M3R) and epidermal growth factor (EGF) receptors (EGFR) (Cheng et al., 2003). Cell proliferation was determined using the validated sulforhodamine B (SRB) calorimetric assay (Skehan et al., 1990). H508 cells were incubated in the absence or presence of a growth stimulant, acetylcholine (300 μM) and EGF (1 ng/ml) alone or with increasing concentrations of c-di-GMP (0.5-50 μM). After a 5-day incubation, the highest concentration of c-di-GMP tested, 50 μM, reduced basal H508 cell proliferation by approx. 15% (FIG. 1; p<0.05 compared to control, Student's unpaired t-test).

CD1 mice = assay: Lethality in CD1 mice; conditions: 50 μl of 200 μM c-di-GMP, after 24 h
[6] = increasing concentrations 0.5-50 μM, 5 days

Nc1nc(=O)c2ncn([C@@H]3OC4COP(=O)(O)O[C@H]5[C@@H](O)[C@H](n6cnc7c(=O)nc(N)[nH]c76)O[C@@H]5COP(=O)(O)OC4C3O)c2[nH]1 (stereo partly shown) [c-di-GMP, Bis(3′-->5′)-cyclic diguanylic acid]
effect on EGF-induced activation (phosphorylation) of p44/42 MAPK [1]: did not alter | effect on acetylcholine-induced activation (phosphorylation) of p44/42 MAPK [1]: did not alter | effect on EGF-induced activation (phosphorylation) of p44/42 MAPK ([1]; listed as cyclic-di-GMP): do not inhibit | effect on acetylcholine-induced activation (phosphorylation) of p44/42 MAPK ([1]; listed as cyclic-di-GMP): do not inhibit | fluorescence (% of control), NRK cell proliferation ([2]; 100 μM, 48 h): 75 % of control fluorescence | fluorescence (% of control), NRK cell proliferation ([2]; 100 μM, 72 h): 87 % of control fluorescence | fluorescence (% of control), NRK cell proliferation ([2]; 100 μM, 96 h): 94 % control fluorescence | fluorescence (% of control), NRK cell proliferation ([2]; 200 μM, 96 h): 85 % of control | NRK cell proliferation ([2]; 200 μM, up to 96 h): retardation of cell proliferation that was much less pronounced than the 400-μM dose | NRK cell proliferation ([2]; 400 μM, 96-h period of exposure): little growth over the 96-h period of exposure | NRK cell proliferation ([2]; 5, 25 or 50 μM (data not shown)): not altered | decrease in fluorescence ([3]; 72 h confluent cells): 36% | decrease in fluorescence ([3]; 72 h non-confluent cells): 14% | toxicity on normal rat kidney cells ([3]; 400 μM, 24 h): nontoxic | fluorescence relative to the solvent control ([3]; 20, 40, 100 μM): no decease in fluorescence relative to the solvent control | toxicity on NRK cells ([3]; 200 and 400 μM, 72 h exposure): toxicity was observed | cytotoxicity on NRK cells ([3]; 24 h exposure): little evidence of cytotoxicity | cytotoxicity on normal rat kidney cells ([3]; all relevant biological concentrations / biologically relevant doses): no cytotoxicity | Fluorescence (% control) ([3]; c-di-GMP 20 μM, 24-h confluent): 98.5 % control | Fluorescence (% control) ([3]; c-di-GMP 20 μM, 72-h confluent): 98.0 % control | Fluorescence (% control) ([3]; c-di-GMP 20 μM, 72-h non-confluent): 97.0 % control | Fluorescence (% control) ([3]; c-di-GMP 40 μM, 24-h confluent): 99.4 % control | Fluorescence (% control) ([3]; c-di-GMP 40 μM, 72-h confluent): 98.0 % control | Fluorescence (% control) ([3]; c-di-GMP 40 μM, 72-h non-confluent): 99.0 % control | Fluorescence (% control) ([3]; c-di-GMP 100 μM, 24-h confluent): 99.7 % control | Fluorescence (% control) ([3]; c-di-GMP 100 μM, 72-h confluent): 92.2 % control | Fluorescence (% control) ([3]; c-di-GMP 200 μM, 24-h confluent): 101.6 % control | Fluorescence (% control) ([3]; c-di-GMP 200 μM, 72-h confluent): 64.2 % control | Fluorescence (% control) ([3]; c-di-GMP 200 μM, 72-h non-confluent): 86.0 % control | Fluorescence (% control) ([3]; c-di-GMP 400 μM, 24-h confluent): 96.2 % control | Fluorescence (% control) ([3]; c-di-GMP 400 μM, 72-h confluent): 40.0 % control | Fluorescence (% control) ([3]; c-di-GMP 400 μM, 72-h non-confluent): 3.0 % control | stability ([4]; physiological conditions): stable | solubility ([4]; water physiological saline): soluble | effect on basal H508 cell proliferation ([5]; 50 μM, 5 days incubation): inhibited | effect on EGF-induced H508 cell proliferation ([5]; 50 μM, 5 days): reduced to basal levels | effect on acetylcholine-induced H508 cell proliferation ([5]; 50 μM, 5 days): reduced to basal levels | reduction of basal H508 cell proliferation ([5]; 50 μM, basal (no stimulant), 5-day incubation): approx. 15% | effect on EGF-induced H508 cell proliferation [5, 6]: inhibit; also recorded: progressively inhibited | effect on acetylcholine-induced H508 cell proliferation [5, 6]: inhibit; also recorded: progressively inhibited | effect on basal H508 cell proliferation ([5]; increasing concentrations, 5 days (FIG. 1)): inhibit | effect on basal H508 cell proliferation ([5]; lower concentrations (below 50 μM), 5 days): did not significantly alter basal proliferation; also recorded: did not alter basal cell proliferation | lethality (CD1 mice): non-lethal
